Values after ≈ are worked out from the molar mass of the structure shown. Like-named read-outs stand apart in the source and are kept apart here. No end group written: not given here. Where only a bound is given, the exact number is not on record here.

The MIC is the smallest concentration in the dilution series that meets the test's criterion for growth inhibition. Usually Kd stands for the concentration at which binding is half-saturated.

In one experiment the target is G-actin (Oryctolagus cuniculus, UniProt P68135). The experiment is described as follows: Surface plasmon resonance, actin binding. Details: species or system rabbit. On the technique in general: In SPR one partner is held on a chip, and binding of the other changes the refractive index at the surface.

For `CC[C@H](C)[C@H](NC(=O)[C@H](CCCCN)NC(=O)[C@H](CCC(=O)O)NC(=O)[C@H](CCCCN)NC(=O)[C@H](CO)NC(=O)[C@H](CCCCN)NC(=O)[C@H](CCCNC(=N)N)NC(=O)[C@H](Cc1ccccc1)NC(=O)[C@H](Cc1ccccc1)NC(=O)[C@H](CC(=O)O)NC(=O)CNC(=O)[C@H](CC(C)C)NC(=O)[C@@H](N)CC(C)C)C(=O)NCC(=O)N[C@@H](CCCCN)C(=O)N[C@@H](CCC(=O)O)C(=O)N[C@@H](Cc1ccccc1)C(=O)N[C@@H](CCCCN)C(=O)N[C@@H](CCCNC(=N)N)C(=O)N[C@H](C(=O)N[C@H](C(=O)N[C@@H](CCC(N)=O)C(=O)N[C@@H](CCCNC(=N)N)C(=O)N[C@H](C(=O)N[C@@H](CCCCN)C(=O)N[C@@H](CC(=O)O)C(=O)N[C@@H](Cc1ccccc1)C(=O)N[C@@H](CC(C)C)C(=O)N[C@@H](CCCNC(=N)N)C(=O)N[C@@H](CC(N)=O)C(=O)N[C@@H](CC(C)C)C(=O)N[C@H](C(=O)N1CCC[C@H]1C(=O)N[C@@H](CCCNC(=N)N)C(=O)N[C@H](C(=O)N[C@@H](CCC(=O)O)C(=O)N[C@@H](CO)C(=O)O)[C@@H](C)O)C(C)C)[C@@H](C)CC)C(C)C)[C@@H](C)CC` [LL-37, reference compound], the MIC in the experiment on Bacillus subtilis PY79 (measured with B. subtilis PY79, LB, 37 °C) stood at 1.1 µM (≈ 4.94 µg/mL); against E. coli K12 (E. coli K12, 100 mM NaCl, tryptic soy broth (TSB)) it was 10 µM (≈ 44.9 µg/mL); in the experiment with E. coli K12 (E. coli K12, no salt, tryptic soy broth (TSB)) it was 10 µM.

FKRIVQRIKDFLR-NH2 [FK-13]: the affinity on G-actin, expressed as Kd, was 18.6 µM. In the experiment on Bacillus subtilis PY79 (PY79), this compound came in with an MIC of 3.3 µM.

Take KRIVQRIKDF-NH2 [KR-10]: on G-actin, the Kd turned out to be 28.4 µM. In the experiment on E. coli K12 (K12), this compound gave an MIC of more than 160 µM.

KRIVQRIKDFLR-NH2 [KR-12] returned a Kd on G-actin of 11.8 µM. The MIC against Bacillus subtilis PY79 (PY79) is 6.6 µM.

The record behind these values is paper PMC4696493 (RSC advances, 2014).
